Where no end group is shown, it is not given here. DAG = diacylglycerol ester at the C-terminus
Assays:
[1] = tested on: AR39 Chlamydia pneumoniae; experiment: Chlamydia pneumoniae clearance from infected THP-1 monocytes (flow cytometry); format: cell-based; details: 25 ng/ml and 50 ng/ml
Procedure: THP-1 monocytes (5×10^4 cells/well) were cultured in Hank's Buffered Saline 1 with 10% FBS in a 24-well microplate. Cells were infected with […] AR39 Chlamydia pneumoniae (CPn) bacteria cells to give an MOI=1 and the infected cells were maintained for 72 hours after infection with a daily media change. Cells were either treated with the PDAG vehicle (0.01% Tween-20 in DMSO) or PDAG (25 ng/ml and 50 ng/ml) 24 hours prior to infection or 24 hours after infection. After the 72 hour incubation period cells were harvested and permeabilized with Cytofix/Cytoperm (BD Pharmingen) and mouse α-CPn monoclonal IgG (clone 61C75) was added and the permeabilized cells incubated for 1 hour. After incubation cells were washed and FITC labeled α-mouse IgG was added and incubated for 1 hour. Cells were again harvested and washed. Quantitation of infected cells was measured by flow cytometry. The viability of cells was determined by trypan blue exclusion.

M. tuberculosis IgM = tested on: M. tuberculosis IgM; design: species or system New Zealand White rabbits; details: rabbit, in vivo
Hepatitis B virus = experiment: HBV replication in HepDES19 cells (core DNA Southern blot); format: cell-based; details: HepDES 19 cells
Procedure: A tetracycline inducible HBV-stable cell line, HepDES19 cells (Guo, 2007), were maintained in DMEM/F-12 medium with penicillin and streptomycin (Invitrogen), 10% FBS, 500 μg/ml G418 (Invitrogen) and 1 μg/ml tetracycline (Sigma-Aldrich, St. Louis, Mo.). To initiate the HBV replication in HepDES19 cells, tetracycline was withdrawn from the medium and the cell was cultured for 4-5 days before viral DNA analysis. To treat the cells with pDAG, the peptide was added in the tetracycline free medium and supplied on the cell culture daily. The concentration of solvent DMSO was adjusted to 0.01% in every treatment.
HBV core DNA was extracted from pDAG-treated HepDES19 cells as described previously (Guo, 2009). Briefly, cells from one 35 mm dish were lysed with 0.5 ml of lysis buffer (10 mM Tris-HCl pH 8.0, 10 mM EDTA, 1% NP40 and 2% sucrose) at 37° C. for 10 minutes. Cell debris and nuclei were removed by centrifugation and the supernatant was mixed with […] of 35% polyethylene glycol (PEG-8000) containing 1.5 M NaCl. After 1 hour incubation in ice, viral nucleocapsids were pelleted by centrifugation at 10,000 rpm for 5 min at 4° C., followed by 1 hour digestion at 37° C. in 200 μl of digestion buffer [0.5 mg/ml pronase (Calbiochem), 0.5% SDS, 150 mM NaCl, 25 mM Tris-HCl pH 8.0, and 10 mM EDTA]. […]

NFκB = NFκB transcripts in primary human fibroblasts incubated with PDAG; format: cell-based; details: 100 pg/ml, overnight, P=0.4
Procedure: (§1) mRNA was extracted from primary human fibroblasts incubated overnight with 100 pg/ml synthetic PDAG. NALP3 and NFκB transcripts were measured.

NALP3 = NALP3 transcripts in primary human fibroblasts incubated with PDAG; format: cell-based; details: 100 pg/ml, overnight, P=0.007
Procedure: as §1

Salmonella typhimurium = experiment: Lethal Salmonella typhimurium challenge in mice; format: in vivo, Swiss Webster mice
Procedure: Swiss Webster mice were challenged with a lethal dose, 5×10^3 cfu/mouse of Salmonella typhimurium. Fifteen of the mice were treated with 5 μg/ml PDAG 24 hours prior to the lethal inoculation. Mice were maintained and monitored daily for 10 days. […] By day 10, 12 mice in the PDAG treated group remained alive, whereas all had died in the untreated group. P<0.0001.

IL-6 = IL-6 mRNA (real-time PCR) and IL-6 protein (ELISA) in fibroblasts stimulated with PDAG; format: cell-based; details: 100 pg/ml PDAG, 24 h
Procedure: Fibroblasts were stimulated with synthetic PDAG for 24 h. RNA was extracted from the fibroblasts and IL-6 transcripts were measured by real-time PCR and IL-6 protein was measure in the media by ELISA. […] Likewise approximately 2-fold more IL-6 protein in the media of the PDAG treated fibroblasts (P=0.0001) was measured.

[2] = Stability of PDAG to hydrolysis; format: physicochemical; details: acidic conditions

| Substance | Chlamydia pneumoniae clearance from infected monocytes [1] | antigen specific IgM production (M. tuberculosis IgM) | Hepatitis B virus replication (Hepatitis B virus) | NFκB transcripts increase (NFκB) | NALP3 transcripts increase (NALP3) | mice remaining alive by day 10 (Salmonella typhimurium; fifteen treated mice, 5 μg/ml PDAG 24 hours prior to lethal inoculation, all untreated died, P<0.0001) | disease progression (Salmonella typhimurium; mice infected with a lethal dose of Salmonella typhimurium) | day on which mortality was first observed (Salmonella typhimurium; mice, 5×10^3 cfu/mouse, 5 μg/ml PDAG 24 hours prior to inoculation, control group day 4) | IL-6 protein in the media (IL-6; ELISA, vs control, P=0.0001) | IL-6 mRNA levels (IL-6; vs untreated cells, P=0.001) | IgM titer, FCA+PDAG vs FCA only (M. tuberculosis IgM) | lability to hydrolysis [2] |
| --- | --- | --- | --- | --- | --- | --- | --- | --- | --- | --- | --- | --- |
| PDAG peptide: Peptide portion of PDAG without the lipid moiety (acALYDKGYTSKEQKDCVGI, SEQ ID NO:8) (Ac-ALYDKGYTSKEQKDCVGI) | induce Chlamydia pneumoniae clearance | – | – | – | – | – | – | – | – | – | – | – |
| acALYDKGYTSKEQKDCVGI-DAG (Ac-ALYDKGYTSKEQKDCVGI-{DAG}) [PDAG, Peptidyl diacylglyceride: N-acetylated 18-mer peptide esterified at C-terminal isoleucine to 1-stearoyl-2-arachidonoyl-sn-glycerol] | induce Chlamydia pneumoniae clearance | two-fold increase | suppresses Hepatitis B virus replication | did not | 1.75 fold | 12 mice | significantly delays disease progression | 7 days | approximately 2 fold | increase IL-6 mRNA levels | – | – |
| acALYDKGYTSKEQKDCVGI-DAG [native PDAG] | – | – | – | – | – | – | – | – | – | – | significantly greater | especially labile to hydrolysis under acidic conditions |

Reference: patent US9662370B2, “Peptidyl diacylglycerides” (priority 2008, dated 2017)
